Publication PMC5218480 (PLoS ONE, 2017)

System: MV-4-11 cells
Assay: Gene expression microarray analysis (Affymetrix PrimeView) and GSEA
Type: cell-based, human
Parameters: RFU PODN (11730768_x_at) / Fold change /veh PODN (11730768_x_at) / RFU LINC00158 (11744669_a_at) / Fold change /veh LINC00158 (11744669_a_at) / RFU DUSP10 (11751237_a_at) / Fold change /veh DUSP10 (11751237_a_at) / RFU ID3 (11757404_x_at) / Fold change /veh ID3 (11757404_x_at) / RFU PLEKHG5 (11737974_s_at) / Fold change /veh PLEKHG5 (11737974_s_at) / RFU LRRC4B (11730491_at) / Fold change /veh LRRC4B (11730491_at) / RFU GIMAP4 (11747438_a_at) / Fold change /veh GIMAP4 (11747438_a_at) / RFU KRT8 (11758183_x_at) / Fold change /veh KRT8 (11758183_x_at) / RFU CNN1 (11734310_a_at) / Fold change /veh CNN1 (11734310_a_at) / RFU VPS37D (11726825_at) / Fold change /veh VPS37D (11726825_at) / RFU C10orf10 (11716522_x_at) / Fold change /veh C10orf10 (11716522_x_at) / RFU KIR2DL2 /// KIR2DL4 /// KIR2DL5A /// KIR2DL5B /// KIR2DS1 /// KIR2DS2 /// KIR2DS3 /// KIR2DS4 /// KIR3DL3 /// KIR3DL3 /// KIR3DS1 (11738374_at) / Fold change /veh KIR2DL2 /// KIR2DL4 /// KIR2DL5A /// KIR2DL5B /// KIR2DS1 /// KIR2DS2 /// KIR2DS3 /// KIR2DS4 /// KIR3DL3 /// KIR3DL3 /// KIR3DS1 (11738374_at) / RFU C1QL1 (11718748_at) / Fold change /veh C1QL1 (11718748_at) / RFU TMPRSS4 (11747572_a_at) / Fold change /veh TMPRSS4 (11747572_a_at) / RFU HAMP (11756126_x_at) / Fold change /veh HAMP (11756126_x_at) / RFU RNFT2 (11725882_a_at) / Fold change /veh RNFT2 (11725882_a_at) / RFU NR4A2 (11747474_a_at) / Fold change /veh NR4A2 (11747474_a_at) / RFU ABCC12 (11746883_a_at) / Fold change /veh ABCC12 (11746883_a_at) / RFU TMEM136 (11760407_x_at) / Fold change /veh TMEM136 (11760407_x_at) / RFU CLDN22 /// WWC2 (11732394_at) / Fold change /veh CLDN22 /// WWC2 (11732394_at) / RFU HLA-DPB1 (11760878_x_at) / Fold change /veh HLA-DPB1 (11760878_x_at) / RFU SPINT1 (11716480_a_at) / Fold change /veh SPINT1 (11716480_a_at) / RFU GAP43 (11754022_s_at) / Fold change /veh GAP43 (11754022_s_at) / RFU A4GNT (11735810_at) / Fold change /veh A4GNT (11735810_at) / RFU PRB3 (11715151_x_at) / Fold change /veh PRB3 (11715151_x_at) / RFU TUBB4B (11761932_at) / Fold change /veh TUBB4B (11761932_at) / RFU CAPN14 (11732068_a_at) / Fold change /veh CAPN14 (11732068_a_at) / RFU TMCC2 (11721928_a_at) / Fold change /veh TMCC2 (11721928_a_at) / RFU IRGQ (11745062_a_at) / Fold change /veh IRGQ (11745062_a_at) / RFU FAM174B (11720279_a_at) / Fold change /veh FAM174B (11720279_a_at) / RFU TMPRSS4 (11748680_a_at) / Fold change /veh TMPRSS4 (11748680_a_at) / RFU FAM212B (11763350_a_at) / Fold change /veh FAM212B (11763350_a_at) / RFU PLEKHG5 (11743358_a_at) / Fold change /veh PLEKHG5 (11743358_a_at) / RFU ZSCAN30 (11745921_a_at) / Fold change /veh ZSCAN30 (11745921_a_at) / RFU CMKLR1 (11741424_a_at) / Fold change /veh CMKLR1 (11741424_a_at) / RFU LOC101060620 /// MAPK8IP1 (11723275_at) / Fold change /veh LOC101060620 /// MAPK8IP1 (11723275_at) / RFU SPTSSB (11747773_x_at) / Fold change /veh SPTSSB (11747773_x_at) / RFU PRSS12 (11739890_at) / Fold change /veh PRSS12 (11739890_at) / RFU BIN1 (11741810_x_at) / Fold change /veh BIN1 (11741810_x_at) / RFU WNT11 (11732464_a_at) / Fold change /veh WNT11 (11732464_a_at) / RFU C10orf10 (11716521_a_at) / Fold change /veh C10orf10 (11716521_a_at) / RFU C5orf56 (11738089_at) / Fold change /veh C5orf56 (11738089_at) / RFU CYB561 (11721691_x_at) / Fold change /veh CYB561 (11721691_x_at) / RFU ANKRD19P (11752326_a_at) / Fold change /veh ANKRD19P (11752326_a_at) / RFU OR2T12 /// OR2T33 /// OR2T8 (11738714_s_at) / Fold change /veh OR2T12 /// OR2T33 /// OR2T8 (11738714_s_at) / RFU VCAN (11748164_a_at) / Fold change /veh VCAN (11748164_a_at) / RFU JSRP1 (11732532_at) / Fold change /veh JSRP1 (11732532_at) / RFU KRTAP10-11 (11738290_x_at) / Fold change /veh KRTAP10-11 (11738290_x_at) / RFU MYO3A (11730013_a_at) / Fold change /veh MYO3A (11730013_a_at) / RFU EBF3 (11725865_a_at) / Fold change /veh EBF3 (11725865_a_at) / RFU CAMK2N1 (11719241_x_at) / Fold change /veh CAMK2N1 (11719241_x_at) / RFU C5orf56 (11738088_a_at) / Fold change /veh C5orf56 (11738088_a_at) / RFU OLFML3 (11715873_a_at) / Fold change /veh OLFML3 (11715873_a_at) / RFU LOC100653217 /// NTM (11731650_a_at) / Fold change /veh LOC100653217 /// NTM (11731650_a_at) / RFU MAPK11 (11762145_a_at) / Fold change /veh MAPK11 (11762145_a_at) / RFU FIZ1 (11724087_x_at) / Fold change /veh FIZ1 (11724087_x_at) / RFU OASL (11726364_x_at) / Fold change /veh OASL (11726364_x_at) / RFU SOX15 (11748057_x_at) / Fold change /veh SOX15 (11748057_x_at) / RFU CD79A (11719716_a_at) / Fold change /veh CD79A (11719716_a_at) / RFU HIST1H1D (11736915_at) / Fold change /veh HIST1H1D (11736915_at) / RFU CASKIN2 (11723855_a_at) / Fold change /veh CASKIN2 (11723855_a_at) / RFU LOC730098 (11760151_x_at) / Fold change /veh LOC730098 (11760151_x_at) / RFU OR4N2 (11742367_at) / Fold change /veh OR4N2 (11742367_at) / RFU PRRT2 (11749266_a_at) / Fold change /veh PRRT2 (11749266_a_at) / RFU SNX32 (11753110_a_at) / Fold change /veh SNX32 (11753110_a_at) / RFU CDHR5 (11726645_a_at) / Fold change /veh CDHR5 (11726645_a_at) / RFU RCAN1 (11760418_a_at) / Fold change /veh RCAN1 (11760418_a_at) / RFU FAM167A (11723789_a_at) / Fold change /veh FAM167A (11723789_a_at) / RFU FAM26E (11764081_at) / Fold change /veh FAM26E (11764081_at) / RFU ISYNA1 (11749810_s_at) / Fold change /veh ISYNA1 (11749810_s_at) / RFU ACY1 (11761880_at) / Fold change /veh ACY1 (11761880_at) / RFU 11764098_at / Fold change /veh 11764098_at / RFU SAMD14 (11745864_x_at) / Fold change /veh SAMD14 (11745864_x_at) / RFU NPB (11741838_a_at) / Fold change /veh NPB (11741838_a_at) / RFU TMPRSS6 (11731388_a_at) / Fold change /veh TMPRSS6 (11731388_a_at) / RFU KRTAP10-2 (11738614_at) / Fold change /veh KRTAP10-2 (11738614_at) / RFU ARHGAP8 /// PRR5-ARHGAP8 (11727945_x_at) / Fold change /veh ARHGAP8 /// PRR5-ARHGAP8 (11727945_x_at) / RFU KRTAP5-7 /// NADSYN1 (11734609_at) / Fold change /veh KRTAP5-7 /// NADSYN1 (11734609_at) / RFU RASL12 (11751679_a_at) / Fold change /veh RASL12 (11751679_a_at) / RFU CDKN2B (11736163_a_at) / Fold change /veh CDKN2B (11736163_a_at) / RFU PRF1 (11729649_at) / Fold change /veh PRF1 (11729649_at) / RFU, ZNF638 /// ZNF638-IT1 / Fold change vs veh, ZNF638 /// ZNF638-IT1 / RFU, PANK3 / Fold change vs veh, PANK3 / RFU, SH3YL1 / Fold change vs veh, SH3YL1 / RFU, ZEB2 / Fold change vs veh, ZEB2 / RFU, NRIP1 / Fold change vs veh, NRIP1 / RFU, PTTG1IP / Fold change vs veh, PTTG1IP / RFU, CAPN2 / Fold change vs veh, CAPN2 / RFU, MED14 / Fold change vs veh, MED14 / RFU, SNORA58 / Fold change vs veh, SNORA58 / RFU, C1orf63 / Fold change vs veh, C1orf63 / RFU, LRRFIP1 / Fold change vs veh, LRRFIP1 / RFU, NDUFAF7 / Fold change vs veh, NDUFAF7 / RFU, SLC12A2 / Fold change vs veh, SLC12A2 / RFU, IBTK / Fold change vs veh, IBTK / RFU, ESF1 / Fold change vs veh, ESF1 / Fold change vs veh, TMEM50B / RFU, TAOK1 / Fold change vs veh, TAOK1 / RFU, ACBD3 / Fold change vs veh, ACBD3 / RFU, TMA16 / Fold change vs veh, TMA16 / RFU, RWDD3 / Fold change vs veh, RWDD3 / RFU, BCAT1 / Fold change vs veh, BCAT1 / RFU, EDEM3 / Fold change vs veh, EDEM3 / RFU, TMEM33 / Fold change vs veh, TMEM33 / RFU, WDR75 / Fold change vs veh, WDR75 / RFU, AHCTF1 / Fold change vs veh, AHCTF1 / RFU, TFRC / Fold change vs veh, TFRC / RFU, ZDHHC17 / Fold change vs veh, ZDHHC17 / RFU, NOM1 / Fold change vs veh, NOM1 / RFU, ARL8B / Fold change vs veh, ARL8B / RFU, ZBTB11 / Fold change vs veh, ZBTB11 / RFU, TAMM41 / Fold change vs veh, TAMM41 / RFU, KIAA1704 /// LOC100996395 / Fold change vs veh, KIAA1704 /// LOC100996395 / RFU, ING1 / Fold change vs veh, ING1 / RFU, TRMT61B / Fold change vs veh, TRMT61B / RFU, FUBP3 / Fold change vs veh, FUBP3 / RFU, TP53 / Fold change vs veh, TP53 / RFU, TNKS2 / Fold change vs veh, TNKS2 / RFU, ZFP14 / Fold change vs veh, ZFP14 / RFU, ACTR2 / Fold change vs veh, ACTR2 / RFU, PPP3R1 / Fold change vs veh, PPP3R1 / RFU, PIK3R1 / Fold change vs veh, PIK3R1 / RFU, HNRNPA1 / Fold change vs veh, HNRNPA1 / RFU, RNF170 / Fold change vs veh, RNF170 / RFU, ZNF28 / Fold change vs veh, ZNF28 / RFU, RNGTT / Fold change vs veh, RNGTT / RFU, OGT / Fold change vs veh, OGT / RFU, BRD1 / Fold change vs veh, BRD1 / RFU, MARS / Fold change vs veh, MARS / RFU, ZNF655 / Fold change vs veh, ZNF655 / RFU, FAHD1 / Fold change vs veh, FAHD1 / RFU, BDP1 / Fold change vs veh, BDP1 / RFU, LRRCC1 / Fold change vs veh, LRRCC1 / RFU, ARID1A / Fold change vs veh, ARID1A / RFU, ZNF146 / Fold change vs veh, ZNF146 / RFU, ZNF330 / Fold change vs veh, ZNF330 / RFU, GPN3 / Fold change vs veh, GPN3 / RFU, C9orf123 / Fold change vs veh, C9orf123 / RFU, N4BP2L2 / Fold change vs veh, N4BP2L2 / RFU, ARFIP1 / Fold change vs veh, ARFIP1 / RFU, FAM179B / Fold change vs veh, FAM179B / RFU, BCL10 / Fold change vs veh, BCL10 / RFU, UHRF1BP1L / Fold change vs veh, UHRF1BP1L / RFU, BET1 / Fold change vs veh, BET1 / RFU, CNOT2 / Fold change vs veh, CNOT2 / RFU, ZNF268 / Fold change vs veh, ZNF268 / Fold change vs veh, ZNF507 / RFU, DGCR2 / Fold change vs veh, DGCR2 / RFU, WDSUB1 / Fold change vs veh, WDSUB1 / Fold change vs veh, HSP90B1 /// MIR3652 / RFU, ADSS / Fold change vs veh, ADSS / RFU, GK / Fold change vs veh, GK / RFU, ZNF148 / Fold change vs veh, ZNF148 / RFU, TAF9 / Fold change vs veh, TAF9 / RFU, SLC1A5 / Fold change vs veh, SLC1A5 / RFU, SLMO2 / Fold change vs veh, SLMO2 / RFU, ABCC4 / Fold change vs veh, ABCC4 / RFU, LOC101060439 /// RAP1B / Fold change vs veh, LOC101060439 /// RAP1B / RFU, RFX7 / Fold change vs veh, RFX7 / RFU, GTPBP10 / Fold change vs veh, GTPBP10 / RFU, CNEP1R1 / Fold change vs veh, CNEP1R1 / RFU, BIVM-ERCC5 /// ERCC5 / Fold change vs veh, BIVM-ERCC5 /// ERCC5 / RFU, ILF3 / Fold change vs veh, ILF3 / RFU 11762660_at / Fold change /veh 11762660_at / RFU VCAN (11757783_s_at) / Fold change /veh VCAN (11757783_s_at) / RFU DDX43 (11728927_at) / Fold change /veh DDX43 (11728927_at) / RFU KRT8 (11758188_x_at) / Fold change /veh KRT8 (11758188_x_at) / RFU NKD1 (11759106_at) / Fold change /veh NKD1 (11759106_at) / RFU SRD5A1 (11742802_a_at) / Fold change /veh SRD5A1 (11742802_a_at) / RFU TPSAB1 /// TPSB2 (11721975_s_at) / Fold change /veh TPSAB1 /// TPSB2 (11721975_s_at) / RFU GSTM3 (11746129_a_at) / Fold change /veh GSTM3 (11746129_a_at) / RFU IL23R (11737362_x_at) / Fold change /veh IL23R (11737362_x_at) / RFU TMEM51 (11727254_a_at) / Fold change /veh TMEM51 (11727254_a_at) / RFU PIWIL2 (11732686_x_at) / Fold change /veh PIWIL2 (11732686_x_at) / RFU ORM1 (11744905_x_at) / Fold change /veh ORM1 (11744905_x_at) / RFU CCDC152 (11743942_at) / Fold change /veh CCDC152 (11743942_at) / RFU ECM1 (11717891_a_at) / Fold change /veh ECM1 (11717891_a_at) / RFU IL23R (11748794_a_at) / Fold change /veh IL23R (11748794_a_at) / RFU TNFAIP8L3 (11732012_x_at) / Fold change /veh TNFAIP8L3 (11732012_x_at) / RFU MBOAT4 (11741988_at) / Fold change /veh MBOAT4 (11741988_at) / RFU 11764193_at / Fold change /veh 11764193_at / RFU TMEM53 (11763286_at) / Fold change /veh TMEM53 (11763286_at) / RFU MAGEB2 (11727129_at) / Fold change /veh MAGEB2 (11727129_at) / RFU TMEM200A (11744735_a_at) / Fold change /veh TMEM200A (11744735_a_at) / RFU CCDC152 (11751479_a_at) / Fold change /veh CCDC152 (11751479_a_at) / RFU FAM211A (11726209_a_at) / Fold change /veh FAM211A (11726209_a_at) / RFU RGS16 (11746705_a_at) / Fold change /veh RGS16 (11746705_a_at) / RFU VCAN (11755009_s_at) / Fold change /veh VCAN (11755009_s_at) / RFU RHOB (11743442_s_at) / Fold change /veh RHOB (11743442_s_at) / RFU RGS16 (11720943_a_at) / Fold change /veh RGS16 (11720943_a_at) / RFU RGS16 (11720944_at) / Fold change /veh RGS16 (11720944_at) / RFU, VPS4B / Fold change vs veh, VPS4B / RFU, CREB1 / Fold change vs veh, CREB1 / RFU, DNAJC13 / Fold change vs veh, DNAJC13 / RFU, GNAQ / Fold change vs veh, GNAQ / RFU, CDK5R1 / Fold change vs veh, CDK5R1 / RFU, ZRANB3 / Fold change vs veh, ZRANB3 / RFU, CUL4A / Fold change vs veh, CUL4A / RFU, CCNY / Fold change vs veh, CCNY / RFU, UFL1 / Fold change vs veh, UFL1 / RFU, COG3 / Fold change vs veh, COG3 / RFU, DIAPH2 / Fold change vs veh, DIAPH2 / RFU, SKA2 / Fold change vs veh, SKA2 / RFU, AFF3 / Fold change vs veh, AFF3 / RFU, LMF1 / Fold change vs veh, LMF1 / RFU, IPO11 / Fold change vs veh, IPO11 / RFU, DFFB / Fold change vs veh, DFFB / RFU, FOXP1 / Fold change vs veh, FOXP1 / RFU, CARD8 / Fold change vs veh, CARD8 / RFU, STRN3 / Fold change vs veh, STRN3 / RFU, ADK / Fold change vs veh, ADK / RFU, RASSF2 / Fold change vs veh, RASSF2 / RFU, WIPF1 / Fold change vs veh, WIPF1 / RFU, LARP1B / Fold change vs veh, LARP1B / RFU, RASA1 / Fold change vs veh, RASA1 / RFU, RB1 / Fold change vs veh, RB1 / RFU, PPFIA1 / Fold change vs veh, PPFIA1 / RFU, MAT2A / Fold change vs veh, MAT2A / RFU, CCT5 / Fold change vs veh, CCT5 / RFU, WDR92 / Fold change vs veh, WDR92 / RFU, CUX1 / Fold change vs veh, CUX1 / RFU, TTC7A / Fold change vs veh, TTC7A / RFU, TMEM135 / Fold change vs veh, TMEM135 / RFU, DEPTOR / Fold change vs veh, DEPTOR / RFU, CPM / Fold change vs veh, CPM / RFU, DNAJB6 / Fold change vs veh, DNAJB6 / RFU, CACNA2D3 / Fold change vs veh, CACNA2D3 / RFU, DTX4 / Fold change vs veh, DTX4 / RFU, TFCP2 / Fold change vs veh, TFCP2 / RFU, GMCL1 /// GMCL1P1 / Fold change vs veh, GMCL1 /// GMCL1P1 / RFU, AEBP2 / Fold change vs veh, AEBP2 / RFU, SNHG1 /// SNORD22 /// SNORD25 /// SNORD26 /// SNORD27 /// SNORD28 /// SNORD29 /// SNORD31 / Fold change vs veh, SNHG1 /// SNORD22 /// SNORD25 /// SNORD26 /// SNORD27 /// SNORD28 /// SNORD29 /// SNORD31 / Fold change (Aza/veh), C12orf56 (ProbeSet 11735607_a_at) / Fold change (ACY-1035/veh), C12orf56 (ProbeSet 11735607_a_at) / Fold change (Aza/veh), FGFR1OP (ProbeSet 11751329_s_at) / Fold change (ACY-1035/veh), FGFR1OP (ProbeSet 11751329_s_at) / Fold change (Aza/veh), VPS36 (ProbeSet 11739960_a_at) / Fold change (ACY-1035/veh), VPS36 (ProbeSet 11739960_a_at) / RFU SYPL1 (11715823_x_at) / Fold change /veh SYPL1 (11715823_x_at) / RFU IGFBP7 (11715501_s_at) / Fold change /veh IGFBP7 (11715501_s_at) / RFU REEP3 (11722064_at) / Fold change /veh REEP3 (11722064_at) / RFU IGLL1 (11728026_x_at) / Fold change /veh IGLL1 (11728026_x_at): dose or concentration left out as unconfirmed
Conditions: MV-4-11 cells, 48 hours

Nc1ccc(-c2cccs2)cc1NC(=O)c1ccc2c(c1)cc(C1CC1)n2CCN1CCOCC1 [ACY-1035]
RFU CNN1 (11734310_a_at): 26.40 RFU
